Source: ChEMBL document CHEMBL1212727, “Design, synthesis and selection of DNA-encoded small-molecule libraries” (Nat Chem Biol, 2009)

Assays:
[1] = target: T1, Mitogen-activated protein kinase 14 (Homo sapiens, UniProt Q16539); test: Displacement of […] form p38alpha after 30 mins by luminescence assay
[2] = target: T2, Aurora kinase A (Homo sapiens, UniProt O14965); test: Inhibition of Aurora A ATP-binding site assessed as inhibition of [gamma-33P]ATP incorporation into substrate by scintillation counting
T2 sequence (O14965 whole entry): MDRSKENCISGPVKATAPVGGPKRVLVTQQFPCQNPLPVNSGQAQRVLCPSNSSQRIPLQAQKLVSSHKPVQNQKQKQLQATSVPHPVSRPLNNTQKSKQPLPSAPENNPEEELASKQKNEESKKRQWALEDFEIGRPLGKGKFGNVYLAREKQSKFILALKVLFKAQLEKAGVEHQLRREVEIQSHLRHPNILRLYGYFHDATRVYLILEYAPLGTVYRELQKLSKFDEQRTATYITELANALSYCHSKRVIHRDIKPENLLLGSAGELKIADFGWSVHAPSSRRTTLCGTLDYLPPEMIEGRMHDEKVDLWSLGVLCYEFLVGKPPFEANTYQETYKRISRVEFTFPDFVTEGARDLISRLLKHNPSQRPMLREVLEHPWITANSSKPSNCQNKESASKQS

[3] = target: T1, Mitogen-activated protein kinase 14; test: Inhibition of p38alpha assessed as inhibition of [gamma-33P]ATP incorporation into substrate after 4 hrs by radiometric assay
[4] = target: T2, Aurora kinase A; test: Inhibition of Aurora A ATP-binding site

T1 sequence (Q16539 whole entry): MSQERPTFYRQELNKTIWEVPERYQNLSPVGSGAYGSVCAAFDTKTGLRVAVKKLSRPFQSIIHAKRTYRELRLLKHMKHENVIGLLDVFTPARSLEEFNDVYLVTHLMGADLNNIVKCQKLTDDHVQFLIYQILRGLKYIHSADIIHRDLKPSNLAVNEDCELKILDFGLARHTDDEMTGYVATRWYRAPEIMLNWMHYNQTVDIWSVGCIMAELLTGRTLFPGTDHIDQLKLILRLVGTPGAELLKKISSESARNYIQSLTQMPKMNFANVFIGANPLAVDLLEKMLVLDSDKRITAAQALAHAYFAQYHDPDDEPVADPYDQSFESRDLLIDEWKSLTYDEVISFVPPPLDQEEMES

SMILES | EC50 [1] | IC50 [2] | other results
CNC(=O)[C@H](Cc1ccc2c(c1)COC(C)(C)O2)Nc1nc(-n2cnc3ccc(C(=O)N4CCCc5ccccc54)cc32)nc(=O)[nH]1 | ≤ 7 nM | – | –
CONC(=O)c1ccc(C)c(Nc2nc(NCC3CCCC(CN)C3)nc(NC(C)C(C)(C)C)n2)c1 (stereo not drawn) | – | – | IC50 [3]: ≤ 2 nM
CONC(=O)c1ccc(C)c(Nc2nc(NCc3cccc(C)c3)nc(NC(C)C(C)(C)C)n2)c1 (stereo not drawn) | – | – | IC50 [3]: 15 nM
CONC(=O)c1ccc(C)c(Nc2nc(NCC3CCCC(CN)C3)nc(NC3CCCCC3)n2)c1 (stereo not drawn) | – | – | IC50 [3]: ≤ 2 nM
CNC(=O)[C@H](Cc1ccc2c(c1)COC(C)(C)O2)Nc1nc(O)nc(-n2cnc3cc(C(=O)N4CCCc5ccccc54)ccc32)n1 | 5200 nM | – | –
Cc1cc(Nc2cc(N3CCN(CC(=O)O)CC3)nc(Sc3ccc(NC(=O)C4CC4)cc3)n2)n[nH]1 | – | – | Ki [4]: 20 nM

Further lines, with some results ahead:

EC50 [1] | IC50 [2] | SMILES | other results
– | 3.7 nM | COc1ccccc1CCNc1nc(Nc2ccc3ncccc3c2)nc(NC(Cc2c[nH]c3ncccc23)C(N)=O)n1 (stereo not drawn) | –
≤ 8 nM | – | CCOc1nc(N[C@@H](Cc2ccc3c(c2)COC(C)(C)O3)C(=O)NC)nc(-n2cnc3ccc(C(=O)N4CCCc5ccccc54)cc32)n1 | –
2700 nM | – | CCOc1nc(N[C@@H](Cc2ccc3c(c2)COC(C)(C)O3)C(=O)NC)nc(-n2cnc3cc(C(=O)N4CCCc5ccccc54)ccc32)n1 | –
– | 3.8 nM | CCCCN(C)c1nc(NCCc2ccccc2OC)nc(NC(Cc2c[nH]c3ncccc23)C(N)=O)n1 (stereo not drawn) | –
– | 1.2 nM | CCCCN(C)c1nc(NCCc2ccccc2OC)nc(NCCc2c[nH]c3ncccc23)n1 | –
– | 6.3 nM | COc1ccccc1CCNc1nc(NC(Cc2c[nH]c3ncccc23)C(N)=O)nc(N(C)[C@@H](C)c2ccccc2)n1 (stereo partly drawn) | –
– | 5.1 nM | CNc1nc(NCCc2ccccc2OC)nc(Nc2ccc3ncccc3c2)n1 | –
